Holding throughout (format): physicochemical
A short description of data set [1]: Solubility measurement in solvents. The following applies: for solubility at 2 h / solubility at 0.5 h: room temperature. How it is done:
(§1) Solubility analysis of Compound 1 (N-(benzo[d]thiazol-2-yl)-4-((2-hydroxy-3-methoxybenzyl)amino)benzenesulfonamide) was performed in a total of 25 media including organic solvent, co-solvent, solubilizer and buffer, for 2 hours at room temperature.
(§2) HPLC method with acceptable resolution and main peak purity developed to determine solubility. The method is described in Table 3.
About 5 mg of Compound 1 was weighed to sample vial and 0.5 mL of solvent was added (target concentration was 10 mg/mL) with 30-100 μL per time. The samples were shaken at room temperature. The samples were prepared in duplicate (n=2) per medium and filtered at 0.5 and 2 hours. The supernatant was collected and analyzed by HPLC.

A short description of data set [2]: Solubility measurement in solubilizers (aqueous phosphate buffer at pH 7.4). How it is done:
as §1, §2
(§3) 5-10 mg of Compound 1 was added to 0.5-1 mL each medium (target concentration was 10 mg/mL), vortexed briefly to create a suspension. The samples were shaken at room temperature. The samples were prepared in duplicate (n=2) per medium and filtered at 0.5 and 2 hours. The supernatant was collected and analyzed by HPLC.

Data set [3] in a line: Solubility measurement in buffers over a pH range. The following applies: thermodynamic from solid. The protocol: as §1, §2, §3
Data set [4] is described as follows: Comparative solubility in SBE-β-CD at pH 9.5. As to conditions: pH 9.5, 80 mg/mL, 22 hours stirring at room temperature. How it is done:
For this study, 1.20 g of SBE-β-CD was weighed into a beaker and 1.31 mL of water was added. This mixture was stirred to dissolve solid completely. 0.846 g of 60% SBE-β-CD stock solution was weighed into a sample vial, and 1.53 mg of GLY, 70 μL of water, and 130 μL of 2N NaOH were added. This mixture was stirred for 10 minutes at room temperature to dissolve solid completely. 80.6 mg of Compound 1 was added (80 mg/mL) and the mixture was sonicated for 10 minutes followed by vigorous stirring for 22 hours at room temperature (23-25° C.).

The nature of data set [5]: Aqueous solubility (general statements).
Data set [6] in a line: Solubility in HP-β-CD at high pH. The following applies: 25% cyclodextrin solution, aqueous with cosolvent or surfactant or cyclodextrin. How it is done: Compound forms a metastable supersaturated solution when formulated with cyclodextrins. To assess for increased solubility, Compound 1 was added to a basic cyclodextrin solution to effect dissolution. The resulting solution was then adjusted with hydrochloric acid into a physiologically compatible pH range and subjected to kinetic solubility, equilibrium solubility, and formulation solubility analyses.
Kinetic solubility. […] The resulting intermediate pH values were approximately 12.5, which promoted rapid dissolution of Compound 1. However, the solutions are known to be chemically labile at higher pH values. The concentration of Compound 1 in subsequent formulation evaluations was lowered to 20 mg/mL and then reduced to 15 mg/mL.

Where [7] appears, read: pH 8.0, read-out: Solubility with 25% cyclodextrin at pH 8.0.
Where [8] appears, read: pH 9.8, read-out: Solubility with 25% cyclodextrin at pH 9.8.

Each structure is given as a SMILES string. ≈ marks a conversion by molar mass, not a printed value. A value given as a limit tells only on which side of the number the result lay.

By solubility is commonly meant the dissolved amount per volume that the medium holds.

As for `COc1cccc(CNc2ccc(S(=O)(=O)Nc3nc4ccccc4s3)cc2)c1O` [Compound 1, N-(benzo[d]thiazol-2-yl)-4-((2-hydroxy-3-methoxybenzyl)amino)benzenesulfonamide], the “solubility at 2 h” value in data set [1] (DMAC, 2 h, visual observation) was “Not precipitated”; in data set [1] (DMSO, 2 h, visual observation) it was “Not precipitated”; in data set [1] (EtOH, organic solvent or mixture, thermodynamic from solid, EtOH, 2 h, read-out: Solubility at 2 h), 270 µg/mL (≈ 612 µM); in data set [1] (Glycerin, organic solvent or mixture, thermodynamic from solid, Glycerin, 2 h, read-out: Solubility at 2 h), 25 µg/mL (≈ 56.6 µM); in data set [1] (NMP, 2 h, visual observation) it was “Not precipitated”; in data set [1] (PEG400, organic solvent or mixture, thermodynamic from solid, PEG400, 2 h, solution was clear at 2 h, read-out: Solubility at 2 h), above 10000 µg/mL. Besides, the solubility at 2 h in data set [1] (PG, organic solvent or mixture, thermodynamic from solid, PG, 2 h, read-out: Solubility at 2 h) was 420 µg/mL (≈ 951 µM); in data set [1] (n-Hexane, organic solvent or mixture, thermodynamic from solid, n-Hexane, 2 h, LOQ = 0.00015 mg/mL, read-out: Solubility at 2 h) it was below 0.15 µg/mL; in data set [2] (1% Tween 80 in phosphate buffer, pH 7.4, aqueous with cosolvent or surfactant or cyclodextrin, thermodynamic from solid, 1% Tween 80, phosphate buffer pH 7.4, 2 h, read-out: Solubility at 2 h) it was 39 µg/mL (≈ 88.3 µM); in data set [2] (5% Cremophor RH40 in phosphate buffer, pH 7.4, aqueous with cosolvent or surfactant or cyclodextrin, thermodynamic from solid, 5% Cremophor RH40, phosphate buffer pH 7.4, 2 h, read-out: Solubility at 2 h) it was 51 µg/mL (≈ 116 µM); in data set [2] (5% Solutol in phosphate buffer, pH 7.4, aqueous with cosolvent or surfactant or cyclodextrin, thermodynamic from solid, 5% Solutol, phosphate buffer pH 7.4, 2 h, read-out: Solubility at 2 h) it was around 100 µg/mL (≈ 226 µM); in data set [2] (5% Solutol, phosphate buffer pH 7.4, 2 h) it was 100 µg/mL (≈ 226 µM). For the same molecule, the solubility at 2 h in data set [2] (5% Tween 80 in phosphate buffer, pH 7.4, aqueous with cosolvent or surfactant or cyclodextrin, thermodynamic from solid, 5% Tween 80, phosphate buffer pH 7.4, 2 h, read-out: Solubility at 2 h) came out at 46 µg/mL (≈ 104 µM); in data set [2] (10% HP-β-CD in phosphate buffer, pH 7.4, aqueous with cosolvent or surfactant or cyclodextrin, thermodynamic from solid, 10% HP-β-CD, phosphate buffer pH 7.4, 2 h, read-out: Solubility at 2 h), 63 µg/mL (≈ 143 µM); in data set [2] (10% Tween 80 in phosphate buffer, pH 7.4, aqueous with cosolvent or surfactant or cyclodextrin, thermodynamic from solid, 10% Tween 80, phosphate buffer pH 7.4, 2 h, read-out: Solubility at 2 h), 78 µg/mL (≈ 177 µM); in data set [2] (20% Captisol in phosphate buffer, pH 7.4, aqueous with cosolvent or surfactant or cyclodextrin, thermodynamic from solid, 20% Captisol, phosphate buffer pH 7.4, 2 h, read-out: Solubility at 2 h) it was 110 µg/mL (≈ 249 µM); in data set [2] (20% HP-β-CD in phosphate buffer, pH 7.4, aqueous with cosolvent or surfactant or cyclodextrin, thermodynamic from solid, 20% HP-β-CD, phosphate buffer pH 7.4, 2 h, read-out: Solubility at 2 h), 190 µg/mL (≈ 430 µM); in data set [2] (40% HP-β-CD in phosphate buffer, pH 7.4, aqueous with cosolvent or surfactant or cyclodextrin, thermodynamic from solid, 40% HP-β-CD, phosphate buffer pH 7.4, 2 h, read-out: Solubility at 2 h), 570 µg/mL (≈ 1290 µM). This molecule also displayed a solubility at 2 h in data set [3] (bicarbonate buffer pH 10.0, pH 10, aqueous buffer, Bicarbonate, pH 10.0, 2 h (measured pH 10.08)) of 0.576 µg/mL (≈ 1.31 µM). Moreover, the solubility at 0.5 h in data set [1] (DMAC, organic solvent or mixture, thermodynamic from solid, 0.5 h, visual observation) was above 100000 µg/mL; in data set [1] (DMSO, organic solvent or mixture, thermodynamic from solid, 0.5 h, visual observation) it was above 100000 µg/mL; in data set [1] (EtOH, organic solvent or mixture, thermodynamic from solid, 0.5 h) it was 290 µg/mL (≈ 657 µM); in data set [1] (Glycerin, organic solvent or mixture, thermodynamic from solid, 0.5 h), 13 µg/mL (≈ 29.4 µM); in data set [1] (NMP, organic solvent or mixture, thermodynamic from solid, 0.5 h, visual observation), above 100000 µg/mL; in data set [1] (PEG400, organic solvent or mixture, thermodynamic from solid, PEG400, 0.5 h), 4420 µg/mL (≈ 10000 µM). Besides, the solubility at 0.5 h was 400 µg/mL (≈ 906 µM) in data set [1] (PG, organic solvent or mixture, thermodynamic from solid, 0.5 h); below 0.15 µg/mL in data set [1] (n-Hexane, organic solvent or mixture, thermodynamic from solid, 0.5 h, LOQ = 0.00015 mg/mL); 20 µg/mL (≈ 45.3 µM) in data set [2] (1% Tween 80 in phosphate buffer, pH 7.4, aqueous with cosolvent or surfactant or cyclodextrin, thermodynamic from solid, 1% Tween 80, phosphate buffer pH 7.4, 0.5 h); 47 µg/mL (≈ 106 µM) in data set [2] (5% Cremophor RH40 in phosphate buffer, pH 7.4, aqueous with cosolvent or surfactant or cyclodextrin, thermodynamic from solid, 5% Cremophor RH40, phosphate buffer pH 7.4, 0.5 h); 78 µg/mL (≈ 177 µM) in data set [2] (5% Solutol in phosphate buffer, pH 7.4, aqueous with cosolvent or surfactant or cyclodextrin, thermodynamic from solid, 5% Solutol, phosphate buffer pH 7.4, 0.5 h); 41 µg/mL (≈ 92.9 µM) in data set [2] (5% Tween 80 in phosphate buffer, pH 7.4, aqueous with cosolvent or surfactant or cyclodextrin, thermodynamic from solid, 5% Tween 80, phosphate buffer pH 7.4, 0.5 h). Moreover, the solubility at 0.5 h in data set [2] (10% HP-β-CD in phosphate buffer, pH 7.4, aqueous with cosolvent or surfactant or cyclodextrin, thermodynamic from solid, 10% HP-β-CD, phosphate buffer pH 7.4, 0.5 h) was 56 µg/mL (≈ 127 µM); in data set [2] (10% Tween 80 in phosphate buffer, pH 7.4, aqueous with cosolvent or surfactant or cyclodextrin, thermodynamic from solid, 10% Tween 80, phosphate buffer pH 7.4, 0.5 h) it was 76 µg/mL (≈ 172 µM); in data set [2] (20% Captisol in phosphate buffer, pH 7.4, aqueous with cosolvent or surfactant or cyclodextrin, thermodynamic from solid, 20% Captisol, phosphate buffer pH 7.4, 0.5 h) it was 100 µg/mL (≈ 226 µM); in data set [2] (20% HP-β-CD in phosphate buffer, pH 7.4, aqueous with cosolvent or surfactant or cyclodextrin, thermodynamic from solid, 20% HP-β-CD, phosphate buffer pH 7.4, 0.5 h), 170 µg/mL (≈ 385 µM); in data set [2] (40% HP-β-CD in aqueous phosphate buffer pH 7.4, pH 7.4, aqueous with cosolvent or surfactant or cyclodextrin, thermodynamic from solid, 40% HP-β-CD, phosphate buffer pH 7.4, 0.5 h), 450 µg/mL (≈ 1020 µM); in data set [3] (bicarbonate buffer pH 10.0, pH 10, aqueous buffer, Bicarbonate, pH 10.0, 0.5 h (measured pH 10.02)), 0.397 µg/mL (≈ 0.899 µM). The solubility in data set [1] (PEG400, organic solvent or mixture, thermodynamic from solid, PEG400, span over 0.5 h and 2 h, read-out: Solubility in PEG400) is 4000 to 10000 µg/mL (≈ 9060 to 22600 µM); in data set [1] (hexane, organic solvent or mixture, thermodynamic from solid, hexane, non-polar solvent, read-out: Solubility in hexane), below 0.15 µg/mL; in data set [1] (solvents other than DMSO, DMAC, NMP and PEG400, organic solvent or mixture, thermodynamic from solid, solvents other than DMSO, DMAC, NMP and PEG400, read-out: Solubility in other solvents) it was below 1000 µg/mL; in data set [2] (HP-β-CD (range of contents) in aqueous phosphate buffer, pH 7.4, aqueous with cosolvent or surfactant or cyclodextrin, thermodynamic from solid, HP-β-CD, range over contents tested), 50 to 500 µg/mL (≈ 113 to 1130 µM); in data set [3] (pH 10 buffer, pH 10, aqueous buffer, pH 10, read-out: Solubility in pH 10 buffer) it was 0.4 to 0.6 µg/mL (≈ 0.906 to 1.36 µM); in data set [3] (pH buffers, pH 1, aqueous buffer, pH 1-9 buffers, main peak not detected by HPLC, read-out: Solubility in pH buffers, pH 1-9), below 0.15 µg/mL. Further, the solubility in data set [6] (setting [7]) was around 20000 µg/mL (≈ 45300 µM); in data set [6] (setting [8]), around 40000 µg/mL (≈ 90600 µM). Also, the “Increase of solubility with the increase of HP-β-CD from 10% to 40%” value in data set [2] (HP-β-CD 10% to 40%, pH 7.4) was above 8 fold. For the same molecule, the “Increase of solubility with the increase of Tween 80 from 1% to 10%” value in data set [2] (Tween 80 1% to 10%) is on record as “about 4 fold”. The “Solubility in HP-β-CD compared with Captisol (SBE-β-CD)” value in data set [2] (same concentration (20%)) is “nearly two times greater”. Moreover, the “Dissolution in SBE-β-CD, visual observation” value in data set [4] is given as “Little, if any, dissolution”. Further, in data set [5], the Solubility in water entry is listed as “poor solubility”.
With `COc1cccc(CNc2ccc(S(=O)(=O)Nc3nc4ccccc4o3)cc2)c1O` [Compound 2, N-(benzo[d]oxazol-2-yl)-4-((2-hydroxy-3-methoxybenzyl)amino)benzenesulfonamide], in data set [5], the Solubility in water result is “poor solubility”. Further, the solubility is around 20000 µg/mL (≈ 47000 µM) in data set [6] (setting [7]) and around 40000 µg/mL (≈ 94000 µM) in data set [6] (setting [8]).
With `COc1cccc(CNc2ccc(S(=O)(=O)Nc3cccc(C(C)C)c3)cc2)c1O` [Compound 3, 4-((2-hydroxy-3-methoxybenzyl)amino)-N-(3-isopropylphenyl)benzenesulfonamide], the Solubility in water entry in data set [5] is reported as “poor solubility”. Moreover, the solubility in data set [6] (setting [7]) is around 20000 µg/mL (≈ 46900 µM); in data set [6] (setting [8]), around 40000 µg/mL (≈ 93800 µM).
